Results on 67 compounds are retold here after PubChem BioAssay AID588782 (Southern Research Specialized Biocontainment Screening …, 2011).

This assay relates to PC3 cells, HSV G47-delta CPE, CellTiter-Glo, 96 h. The assay is described as follows: enhancers of oncolytic HSV cytopathic effect, confirmation, PC3 cells, CellTiter-Glo, secondary (AID 588782).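 On CPE increase: percent rise in virus-caused cell damage over infected cultures given no drug.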 The note with it: for outcome / CPE increase: at 10 µM; for CC50: measured here: PC3 cytotoxicity; for CPE increase: stronger effect = higher value.

“And” between values parts separate entries of the source, which are not always exact repeats. Equal values may be shown once. The source made the active and inactive calls.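 How the source made its calls: active means virus-caused cell damage raised over twofold versus untreated cells in three repeats, without toxicity at overlapping doses; inactive means the rest.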

For orientation: CC50 means the concentration giving 50% cytotoxicity. For `CNCCN(C)CCCOC(=O)c1ccc(F)cc1`, the outcome was inactive and the CC50 was more than 100 µM.
The matching figures for `COc1cc(C(=O)OCCCN2CCCN(CCCOC(=O)c3cc(OC)c(OC)c(OC)c3)CC2)cc(OC)c1OC`: “inactive” and more than 100 µM.
The matching figures for `COc1cc(C(=O)OCCN2CCN(CCOC(=O)c3cc(OC)c(OC)c(OC)c3)CC2)cc(OC)c1OC`: “inactive” and more than 100 µM.
On the same counts, the results for `COc1cc(C(=O)OCCCN2CCOCC2)cc(OC)c1OC` are “inactive” and more than 100 µM.
In the case of `COc1cc(C(=O)OCCN2CCCC2)cc(OC)c1OC`, the outcome was inactive and the CC50 was more than 100 µM.
On the same counts, the results for `COc1cc(OC)cc(C(=O)OCCCN2CCN(CCCOC(=O)c3cc(OC)cc(OC)c3)CC2)c1` are “inactive” and more than 94 µM.
As to `COc1ccc(C(=O)OCCCN2CCN(CCCOC(=O)c3ccc(OC)cc3)CC2)cc1`, the result was inactive and the CC50 was more than 100 µM.
On the same counts, the results for `CN1CCN(CCCOC(=O)c2ccccc2)CC1` are “inactive” and more than 100 µM.
On to `COc1ccc(N2C(=O)CC(N3CCCN(C4CC(=O)N(c5ccc(OC)cc5)C4=O)CC3)C2=O)cc1` (stereo not given), for which the outcome was inactive and the CC50 is more than 100 µM.
On the same counts, the results for `O=C(CNc1ccc(F)cc1)CN1CCCN(CC(=O)Nc2ccc(F)cc2)CC1` are “inactive” and more than 100 µM.
The matching figures for `COc1cc(C(=O)OCCN2CCCN(CCOC(=O)c3cc(OC)c(OC)c(OC)c3)CC2)cc(OC)c1OC`: “inactive” and more than 100 µM.
On the same counts, the results for `COc1cc(OC)cc(C(=O)OCCN2CCOCC2)c1` are “inactive” and more than 100 µM.
As for `COc1cc(OC)cc(C(=O)OCCN2CCN(CCOC(=O)c3cc(OC)cc(OC)c3)CC2)c1`, the outcome was inactive and the CC50 was more than 100 µM.
On the same counts, the results for `COc1cc(-c2cn(CCCN3CCCN(CCCn4cc(-c5cc(OC)c(OC)c(OC)c5)nn4)CC3)nn2)cc(OC)c1OC` are “inactive” and more than 100 µM.
Take `COc1ccc(C(=O)OCCCNCCNCCCOC(=O)c2ccc(OC)cc2)cc1`: the outcome was inactive; the CPE increase is 19.8% (inactive); the CC50 is > 93 µM and 21.7 µM.
For `CNCCN(C)CCCOC(=O)c1ccc(OC)cc1`, the result was inactive and the CC50 is more than 100 µM.
The matching figures for `COc1ccc(C(=O)OCCCN2CCN(C)CC2)cc1`: “inactive” and more than 100 µM.
As for `COc1ccc(C(=O)OCCCN2CCCN(C)CC2)cc1`, the outcome was inactive and the CC50 is more than 100 µM.
On the same counts, the results for `COc1cc(CN2CCCN(Cc3cc(OC)c(OC)c(OC)c3)CC2)cc(OC)c1OC` are “inactive” and more than 100 µM.
With `CN1CCN(CCCOC(=O)c2ccc(F)cc2)CC1`, the result was inactive and the CC50 was more than 100 µM.
As for `O=C(OCCCN1CCCN(CCCOC(=O)c2ccc(F)cc2)CC1)c1ccc(F)cc1`, the outcome was inactive and the CC50 stood at 66.9 µM.
As to `COc1cc(OC)cc(C(=O)OCCN2CCCN(CCOC(=O)c3cc(OC)cc(OC)c3)CC2)c1`, the outcome was inactive and the half-maximal cytotoxic concentration (CC50) was more than 100 µM.
The matching figures for `COc1cc(C(=O)OCCCN2CCN(C)CC2)cc(OC)c1OC`: “inactive” and more than 100 µM.
As for `COc1ccc(C(=O)OCCN2CCCN(CCOC(=O)c3ccc(OC)cc3)CC2)cc1`, the outcome was inactive and the CC50 is more than 100 µM.
On the same counts, the results for `COc1cc(OC)cc(C(=O)OCCN2CCCN(C)CC2)c1` are “inactive” and more than 100 µM.
On the same counts, the results for `COc1cc(C(=O)OCCCN2CCCC2)cc(OC)c1OC` are “inactive” and more than 100 µM.
For the compound `COc1cccc(C(=O)NCCCN2CCN(CCCNC(=O)c3cccc(OC)c3)CC2)c1`, the outcome was inactive and the CC50 is more than 100 µM.
As for `CC(=O)NCCCN1CCCN(CCCNC(C)=O)CC1`, the outcome was inactive and the CC50 was more than 100 µM.
For `COc1cc(C(=O)OCCCN(C)CCN(C)CCCOC(=O)c2cc(OC)c(OC)c(OC)c2)cc(OC)c1OC`, the outcome was inactive and the CC50 is more than 100 µM.
On the same counts, the results for `COc1cc(C(=O)OCCCN2CCCN(C(C)=O)CC2)cc(OC)c1OC` are “inactive” and more than 100 µM.
As to `COc1cc(C(=O)OCCCN2CCCN(Cc3ccccc3)CC2)cc(OC)c1OC`, the outcome was inactive and the CC50 is more than 100 µM.
Take `COc1cc(C(=O)OCCCN2CCCN(C(=O)OC(C)(C)C)CC2)cc(OC)c1OC`: the result was inactive and the CC50 was more than 100 µM.
For `CN1CCCN(CCCOC(=O)c2ccc(F)cc2)CC1`, the result was inactive and the cytotoxic concentration (CC50) is more than 100 µM.
For the compound `COc1cc(OC)cc(C(=O)OCCCN2CCN(C)CC2)c1`, the outcome was inactive and the CC50 was more than 100 µM.
On the same counts, the results for `COc1cc(NC(=O)Nc2cc(OC)c(OC)c(OC)c2)cc(OC)c1OC` are “inactive” and more than 100 µM.
The matching figures for `NCCCN1CCCN(CCCN)CC1`: “inactive” and more than 100 µM.
In the case of `COc1cc(OC)cc(C(=O)OCCCN2CCCN(Cc3ccccc3)CC2)c1`, the outcome was inactive and the CC50 was more than 100 µM.
Regarding `CN1CCCN(CCCOC(=O)c2ccccc2)CC1`, the outcome was inactive and the 50% cytotoxic concentration (CC50) was more than 100 µM.
The matching figures for `COc1cc(C(=O)OCCCN2CCN(CCCOC(=O)c3cc(OC)c(OC)c(OC)c3)CC2)cc(OC)c1OC`: “inactive” and more than 100 µM.
With `COc1cc(OC)cc(C(=O)OCCN2CCCC2)c1`, the outcome was inactive and the 50% cytotoxic concentration (CC50) is more than 100 µM.
Consider `COc1cc(C(=O)OCCCN2CCCN(C)CC2)cc(OC)c1OC`, for which the outcome was inactive and the CC50 is more than 100 µM.
The matching figures for `COc1cc(C(=O)OCCN2CCCN(Cc3ccccc3)CC2)cc(OC)c1OC`: “inactive” and more than 100 µM.
For `COc1cc(OC)cc(C(=O)OCCCN2CCCN(C)CC2)c1`, the outcome was inactive and the CC50 is more than 100 µM.
`COc1cc(OC)cc(C(=O)OCCCNCCNCCCOC(=O)c2cc(OC)cc(OC)c2)c1`: the CPE increase is 15.8% (inactive) and the CC50 was found to be 32.1 µM.
`O=C(NCCCN1CCN(CCCNC(=O)c2ccc3c(c2)OCO3)CC1)c1ccc2c(c1)OCO2`: the CPE increase was 14.4% (inactive) and the CC50 is more than 100 µM.
In the case of `O=C(CN1CCCN(CC(=O)CN2C(=O)c3ccccc3C2=O)CC1)CN1C(=O)c2ccccc2C1=O`, the result was inactive and the CC50 is more than 100 µM.
The matching figures for `COc1ccc(C(=O)OCCN2CCN(CCOC(=O)c3ccc(OC)cc3)CC2)cc1`: “inactive” and more than 100 µM.
For `COc1ccc(C(=O)OCCCN2CCCC2)cc1`, the result was inactive and the CC50 is more than 100 µM.
The matching figures for `CNCCN(C)CCOC(=O)c1cc(OC)cc(OC)c1`: “inactive” and more than 100 µM.
With `O=C(OCCCN1CCOCC1)c1ccc(F)cc1`, the result was inactive and the CC50 was more than 100 µM.
The matching figures for `O=C(/C=C/c1ccc2c(c1)OCO2)N1CCCN(C(=O)/C=C/c2ccc3c(c2)OCO3)CC1`: “inactive” and more than 100 µM.
As for `O=C(OCCCN1CCN(CCCOC(=O)c2ccc(F)cc2)CC1)c1ccc(F)cc1`, the result was inactive and the CC50 is more than 100 µM.
In the case of `O=C(OCCCN1CCCN(CCCOC(=O)c2ccccc2)CC1)c1ccccc1`, the result was inactive and the 50% cytotoxic concentration (CC50) is more than 100 µM.
On to `COc1ccc(C(=O)OCCN2CCCN(C)CC2)cc1`, for which the CPE increase is 27.1% (inactive) and the CC50 was more than 100 µM.
Consider `COc1cc(C(=O)OCCCN2CCCN(C(=O)c3ccccc3)CC2)cc(OC)c1OC`, for which the result was inactive and the half-maximal cytotoxic concentration (CC50) was more than 100 µM.
The matching figures for `COc1ccc(C(=O)OCCN2CCCN(Cc3ccccc3)CC2)cc1`: “inactive” and more than 100 µM.
As for `COc1cc(C(=O)OCCN2CCN(C)CC2)cc(OC)c1OC`, the outcome was inactive and the CC50 was more than 100 µM.
The matching figures for `O=C(OCCCN1CCN(CCCOC(=O)c2ccccc2)CC1)c1ccccc1`: “inactive” and more than 100 µM.
With `COc1cc(OC)cc(C(=O)OCCN2CCN(C)CC2)c1`, the result was inactive and the CC50 is more than 100 µM.
Consider `O=C(CCN1CCCN(CCC(=O)Nc2ccccc2)CC1)Nc1ccccc1`, for which the outcome was inactive and the CC50 was more than 100 µM.
The matching figures for `COc1cc(C(=O)OCCCN2CCCNCC2)cc(OC)c1OC`: “inactive” and more than 100 µM.
Regarding `COc1ccc(C(=O)OCCCN2CCCN(CCCOC(=O)c3ccc(OC)cc3)CC2)cc1`, the outcome was inactive and the CC50 is more than 93 µM.
Turning to `COc1ccc(C(=O)OCCN2CCN(C)CC2)cc1`, the result was inactive and the CC50 was more than 100 µM.
On the same counts, the results for `COc1cc(C(=O)OCCN2CCOCC2)cc(OC)c1OC` are “inactive” and more than 100 µM.
The matching figures for `COc1cc(COCCCN2CCCN(CCCOCc3cc(OC)c(OC)c(OC)c3)CC2)cc(OC)c1OC`: “inactive” and more than 100 µM.
For `COc1ccc(C(=O)NCCCN2CCCN(C)CC2)cc1`, the outcome was inactive and the CC50 is more than 100 µM.
As to `CNCCN(C)CCOC(=O)c1cc(OC)c(OC)c(OC)c1`, the outcome was inactive and the CC50 is more than 100 µM.
